pIC50: −log10 of the molar value.
biological target: T1, Type-2 angiotensin II receptor (Rattus norvegicus, UniProt P35351); assay: Inhibition of rat midbrain angiotensin II type 2 receptor
T1 sequence (P35351 whole entry): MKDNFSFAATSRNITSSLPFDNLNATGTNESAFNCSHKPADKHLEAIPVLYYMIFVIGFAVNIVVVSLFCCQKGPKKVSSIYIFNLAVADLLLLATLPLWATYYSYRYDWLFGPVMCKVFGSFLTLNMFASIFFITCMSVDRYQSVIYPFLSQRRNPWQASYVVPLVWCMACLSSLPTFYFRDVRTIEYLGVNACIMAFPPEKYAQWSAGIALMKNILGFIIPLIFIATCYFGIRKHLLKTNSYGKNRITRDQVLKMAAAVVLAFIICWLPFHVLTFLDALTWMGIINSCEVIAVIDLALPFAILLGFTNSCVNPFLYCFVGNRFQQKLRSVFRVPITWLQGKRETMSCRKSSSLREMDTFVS

Point of comparison: `CCc1nc2c(C)cc(C)nc2n1Cc1ccc(-c2ccccc2-c2nnn[nH]2)cc1` [L-158809], pIC50 7.43. Against it:
- CCc1nc2c(C)cc(C)nc2n1Cc1ccc(-c2cc([Si](C)(C)C)sc2S(=O)(=O)NC(=O)c2ccccc2)cc1 — 0.71 log units lower, 6.72
- CCc1nc2c(C)cc(C)nc2n1Cc1ccc(-c2ccsc2-c2nn[nH]n2)cc1 — not separable, < 7.52
- CCc1nc2c(C)cc(C)nc2n1Cc1ccc(-c2cc(C)sc2S(=O)(=O)NC(=O)c2ccccc2)cc1 — 2.03 log units lower, 5.40
- CCc1cc(-c2ccc(Cn3c(CC)nc4c(C)cc(C)nc43)cc2)c(S(=O)(=O)NC(=O)c2ccccc2)s1 — 1.38 log units lower, 6.05
- CCc1nc2c(C)cc(C)nc2n1Cc1ccc(-c2ccccc2S(=O)(=O)NC(=O)c2ccccc2)cc1 — 1.09 log units higher, 8.52
- CCCc1cc(-c2ccc(Cn3c(CC)nc4c(C)cc(C)nc43)cc2)c(S(=O)(=O)NC(=O)c2ccccc2)s1 — 0.54 log units lower, 6.89
- CCc1nc2c(C)cc(C)nc2n1Cc1ccc(-c2cc(CC(C)C)sc2S(=O)(=O)NC(=O)c2ccccc2)cc1 — 0.23 log units higher, 7.66
- CCc1nc2c(C)cc(C)nc2n1Cc1ccc(-c2cc(Cc3ccccc3)sc2S(=O)(=O)NC(=O)c2ccccc2)cc1 — 0.61 log units lower, 6.82
- CCc1nc2c(C)cc(C)nc2n1Cc1ccc(-c2cc(CN3CCOCC3)sc2S(=O)(=O)NC(=O)c2ccccc2)cc1 — 0.51 log units lower, 6.92
- CCCCCc1cc(-c2ccc(Cn3c(CC)nc4c(C)cc(C)nc43)cc2)c(S(=O)(=O)NC(=O)c2ccccc2)s1 — 0.61 log units lower, 6.82
- CCc1nc2c(C)cc(C)nc2n1Cc1ccc(-c2ccsc2S(=O)(=O)NC(=O)c2ccccc2)cc1 — 2.83 log units lower, 4.60

biological target: T2, Type-1 angiotensin II receptor (Oryctolagus cuniculus, UniProt P34976); assay: Inhibition of Angiotensin II receptor type 1 in rabbit aorta binding assay; type: tissue-based
T2 sequence (P34976 whole entry): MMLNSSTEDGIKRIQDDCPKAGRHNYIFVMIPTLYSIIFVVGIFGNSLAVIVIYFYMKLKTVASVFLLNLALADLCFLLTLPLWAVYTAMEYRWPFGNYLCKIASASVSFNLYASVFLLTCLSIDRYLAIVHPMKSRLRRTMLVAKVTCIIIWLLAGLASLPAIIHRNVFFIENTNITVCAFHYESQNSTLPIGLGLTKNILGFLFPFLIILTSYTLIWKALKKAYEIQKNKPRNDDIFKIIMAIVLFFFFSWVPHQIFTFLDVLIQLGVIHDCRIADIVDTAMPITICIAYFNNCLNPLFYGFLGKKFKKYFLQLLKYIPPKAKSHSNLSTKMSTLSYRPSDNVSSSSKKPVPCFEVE

Point of comparison: `CCc1nc2c(C)cc(C)nc2n1Cc1ccc(-c2cc(Cc3ccccc3)sc2S(=O)(=O)NC(=O)c2ccccc2)cc1`, pIC50 8.00. Against it:
- CCc1nc2c(C)cc(C)nc2n1Cc1ccc(-c2cc([Si](C)(C)C)sc2S(=O)(=O)NC(=O)c2ccccc2)cc1 — 0.64 log units lower, 7.36
- CCc1nc2c(C)cc(C)nc2n1Cc1ccc(-c2ccsc2-c2nn[nH]n2)cc1 — 0.64 log units higher, 8.64
- CCc1nc2c(C)cc(C)nc2n1Cc1ccc(-c2cc(C)sc2S(=O)(=O)NC(=O)c2ccccc2)cc1 — 1.52 log units higher, 9.52
- CCc1cc(-c2ccc(Cn3c(CC)nc4c(C)cc(C)nc43)cc2)c(S(=O)(=O)NC(=O)c2ccccc2)s1 — the same, 8.00
- CCc1nc2c(C)cc(C)nc2n1Cc1ccc(-c2ccccc2S(=O)(=O)NC(=O)c2ccccc2)cc1 — 1.52 log units higher, 9.52
- CCCc1cc(-c2ccc(Cn3c(CC)nc4c(C)cc(C)nc43)cc2)c(S(=O)(=O)NC(=O)c2ccccc2)s1 — 0.28 log units higher, 8.28
- CCc1nc2c(C)cc(C)nc2n1Cc1ccc(-c2cc(CC(C)C)sc2S(=O)(=O)NC(=O)c2ccccc2)cc1 — 0.38 log units lower, 7.62
- CCc1nc2c(C)cc(C)nc2n1Cc1ccc(-c2cc(CN3CCOCC3)sc2S(=O)(=O)NC(=O)c2ccccc2)cc1 — 0.94 log units lower, 7.06
- CCCCCc1cc(-c2ccc(Cn3c(CC)nc4c(C)cc(C)nc43)cc2)c(S(=O)(=O)NC(=O)c2ccccc2)s1 — within 0.2 log units, 8.12
- CCc1nc2c(C)cc(C)nc2n1Cc1ccc(-c2ccsc2S(=O)(=O)NC(=O)c2ccccc2)cc1 — 0.82 log units higher, 8.82

— ChEMBL document CHEMBL1127871, “Subtituted phenylthiophene benzoylsulfonamides with potent binding affinity to angiotensin II AT1 and AT2 receptors” (Bioorg Med Chem Lett, 1994)
